Data taken from patent US9497970B2, “Pesticide compounds” (priority 2013, dated 2016).

Experiments:
Assay type in all cases: in vivo
[1] = tested on: Green Peach Aphid (Myzus persicae); assay: B.9 Green Peach Aphid (Myzus persicae), sprayed bell pepper plants; details: 120 h, infested bell pepper plants sprayed, after 5 days, in comparison with untreated controls
Protocol: B.9 Green Peach Aphid (Myzus persicae)
(§1) The active compounds were formulated by a Tecan liquid handler in 100% cyclohexa none as a 10,000 ppm solution supplied in tubes. The 10,000 ppm solution was serially diluted in 100% cyclohexanone to make interim solutions. These served as stock solutions for which final dilutions were made by the Tecan in 50% acetone:50% water (v/v) into 5 or 10 ml glass vials. A nonionic surfactant (Kinetic®) was included in the solution at a volume of 0.01% (v/v). The vials were then inserted into an automated electrostatic sprayer equipped with an atomizing nozzle for application to plants/insects.
Bell pepper plants at the first true-leaf stage were infested prior to treatment by placing heavily infested leaves from the main colony on top of the treatment plants. Aphids were allowed to transfer overnight to accomplish an infestation of 30-50 aphids per plant and the host leaves were removed. The infested plants were then sprayed by an automated electrostatic plant sprayer equipped with an atomizing spray nozzle. The plants were dried in the sprayer fume hood, removed, and then maintained in a growth room under fluorescent lighting in a 24-hr photoperiod at about 25° C. and about 20-40% relative humidity. Aphid mortality on the treated plants, relative to mortality on untreated control plants, was determined after 5 days.

[2] = tested on: Boll Weevil (Anthonomus grandis); assay: B.3 Boll Weevil (Anthonomus grandis), microtiter plate insect diet; details: 120 h, 800 ppm, sprayed onto insect diet, 5 days, in comparison with untreated controls, read-out: mortality (egg and larval)
How it was run: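 Compounds in 25% DMSO/water sprayed at several concentrations onto insect diet in microtiter wells holding 5–10 A. grandis eggs, two replicates. Plates kept 5 days at about 25±1 °C and 75±5% RH. Egg and larval mortality scored visually.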

[3] = tested on: Diamond Back Moth (Plutella xylostella); assay: B.1 Diamond Back Moth (Plutella xylostella), cabbage leaf dip; details: foliar, 500 ppm, 3rd instar larvae on dipped cabbage leaves, 72 hours after treatment, in comparison with untreated controls, read-out: mortality
How it was run: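 Cabbage leaves dipped in compound in 1:1 water:acetone with 0.01% Kinetic HV surfactant, air-dried, then infested with ten 3rd-instar larvae on moist filter paper. Mortality scored at 72 h after treatment; feeding damage rated on a 0-100% scale.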

[4] = tested on: Tobacco Budworm (Heliothis virescens); assay: B.7 Tobacco Budworm (Heliothis virescens) I, microtiter plate insect diet; details: 120 h, 800 ppm, sprayed onto insect diet, 5 days, in comparison with untreated controls, read-out: mortality (egg and larval)
How it was run: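 96-well plates with insect diet and 15-25 H. virescens eggs; compounds in 75% water/25% DMSO sprayed onto diet at several concentrations, two replicates. Plates held at about 28±1° C. and 80±5% relative humidity for 5 days, then egg and larval mortality scored visually.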

[5] = tested on: Mediterranean Fruitfly (Ceratitis capitata); assay: B.6 Mediterranean Fruitfly (Ceratitis capitata), microtiter plate insect diet; details: 120 h, 800 ppm, sprayed onto insect diet, 5 days, in comparison with untreated controls, read-out: mortality (egg and larval)
How it was run: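 Insect diet with 50-80 C. capitata eggs sprayed with compounds formulated in 75% water/25% DMSO, at different concentrations, two replications. Incubation at about 28±1° C and 80±5% relative humidity for 5 days, then egg and larval mortality assessed visually.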

[6] = tested on: Orchid thrips (dichromothrips corbetti); assay: B.12 Orchid thrips (dichromothrips corbetti), floral-immersion technique; details: adult thrips on dipped orchid petals, 72 hours after treatment, in comparison with untreated controls
Protocol: B.12 Orchid thrips (dichromothrips corbetti)
Dichromothrips corbetti adults used for bioassay were obtained from a colony maintained continuously under laboratory conditions. For testing purposes, the test compound is diluted in a 1:1 mixture of acetone:water (vol:vol), plus Kinetic HV at a rate of 0.01% v/v.
Thrips potency of each compound was evaluated by using a floral-immersion technique. All petals of individual, intact orchid flowers were dipped into treatment solution and allowed to dry in Petri dishes. Treated petals were placed into individual resealable plastic along with about 20 adult thrips. All test arenas were held under continuous light and a temperature of about 28° C. for duration of the assay. After 3 days, the numbers of live thrips were counted on each petal. The percent mortality was recorded 72 hours after treatment.

[7] = tested on: Southern Armyworm (Spodoptera eridania), 2nd Instar Larvae; assay: B.10 Southern Armyworm (Spodoptera eridania), 2nd Instar Larvae, sprayed lima bean plants; details: 96 h, 300 ppm, larvae on sprayed lima bean plants, 4 days after treatment, in comparison with untreated controls, read-out: mortality
Protocol: B.10 Southern Armyworm (Spodoptera eridania), 2nd Instar Larvae
as §1, with “cyclohexanone” for “cyclohexa none”
Lima bean plants (variety Sieva) were grown 2 plants to a pot and selected for treatment at the 1st true leaf stage. Test solutions were sprayed onto the foliage by an automated electrostatic plant sprayer equipped with an atomizing spray nozzle. The plants were dried in the sprayer fume hood and then removed from the sprayer. Each pot was placed into perforated plastic bags with a zip closure. About 10 to 11 armyworm larvae were placed into the bag and the bags zipped closed. Test plants were maintained in a growth room at about 25° C. and about 20-40% relative humidity for 4 days, avoiding direct exposure to fluorescent light (24 hour photoperiod) to prevent trapping of heat inside the bags. Mortality and reduced feeding were assessed 4 days after treatment, compared to untreated control plants.

[8] = tested on: Yellow Fever Mosquito (Aedes aegypti); assay: whole plant or invertebrate; details: 48 h, freshly hatched larvae in tap water, 2 days, in comparison with untreated controls, read-out: mortality (larval)
Protocol: B.11 Yellow Fever Mosquito (Aedes aegypti)
For evaluating control of yellow fever mosquito (Aedes aegypti) the test unit consisted of 96-well-microtiter plates containing 200 μl of tap water per well and 5-15 freshly hatched A. aegypti larvae.
The active compounds were formulated using a solution containing 75% (v/v) water and 25% (v/v) DMSO. Different concentrations of formulated compounds or mixtures were sprayed onto the insect diet at 2.5 μl, using a custom built micro atomizer, at two replications.

Cc1ccc(NC(=S)N/N=C/c2ccc3c(ccc4c3ncn4-c3ccc(OC(F)(F)F)cc3)c2)c(C)c1 [C-2, 1-(2,4-dimethylphenyl)-3-[(E)-[3-[4-(trifluoromethoxy)phenyl]benzo[e]benzimidazol-7-yl]methyleneamino] thiourea]
≥ 75%: mortality at 800 ppm [1] | mortality at 800 ppm [2] | mortality at 500 ppm [3] | mortality at 800 ppm [4] | mortality at 800 ppm [5]

Cc1cccc(C)c1NC(=S)N/N=C/c1ccc2c(c1)CCc1c-2noc1-c1ccc(OC(F)(F)F)cc1 [C-7, 1-(2,6-dimethylphenyl)-3-[(E)-[3-[4-(trifluoromethoxy)phenyl]-4,5-dihydrobenzo[g][2,1]benzoxazol-7-yl]methyleneamino]thiourea]
≥ 75%: mortality at 800 ppm [1] | mortality at 800 ppm [4] | mortality at 500 ppm [6]

CCc1ccccc1NC(=S)N/N=C/c1ccc2c(ccc3c2ncn3-c2ccc(OC(F)(F)F)cc2)c1 [C-22, 3-(2-ethylphenyl)-1-[[3-[4-(trifluoromethoxy)phenyl]-9aH-benzo[e]benzimidazol-7-ylidene]methylimino] isothiourea]
≥ 75%: mortality at 300 ppm [7] | mortality at 800 ppm [2] | mortality at 500 ppm [3] | mortality at 800 ppm [8] | mortality at 800 ppm [4] | mortality at 500 ppm [6] | mortality at 800 ppm [5]

Cc1ccccc1NC(=S)N/N=C/c1ccc2c(ccc3c2ncn3-c2ccc(OC(F)(F)F)cc2)c1 [C-23, 3-(o-tolyl)-1-[[3-[4-(trifluoromethoxy)phenyl]-9aH-benzo[e]benzimidazol-7-ylidene]methylimino]isothiourea]
≥ 75%: mortality at 300 ppm [7] | mortality at 800 ppm [2] | mortality at 500 ppm [3] | mortality at 800 ppm [4] | mortality at 500 ppm [6] | mortality at 800 ppm [5]

O=[N+]([O-])c1ccccc1NC(=S)N/N=C/c1ccc2c(ccc3c2ncn3-c2ccc(OC(F)(F)F)cc2)c1 [C-31, 3-(2-nitrophenyl)-1-[[3-[4-(trifluoromethoxy)phenyl]-9aH-benzo[e]benzimidazol-7-ylidene]methylimino] isothiourea]
≥ 75%: mortality at 800 ppm [1] | mortality at 800 ppm [2] | mortality at 800 ppm [4]

FC(F)(F)Oc1ccc(-n2nnc3c4ccc(/C=N/NC(=S)Nc5c(Cl)cccc5Cl)cc4ccc32)cc1 [C-57, 1-(2,6-dichlorophenyl)-3-[(E)-[3-[4-(trifluoromethoxy)phenyl]benzo[e]benzotriazol-7-yl]methyleneamino] thiourea]
≥ 75%: mortality at 800 ppm [1]

CCc1cccnc1NC(=S)N/N=C/c1ccc2c(ccc3c2ncn3-c2ccc(OC(F)(F)F)cc2)c1 [C-68, 1-(3-ethyl-2-pyridyl)-3-[(E)-[3-[4-(trifluoromethoxy)phenyl]benzo[e]benzimidazol-7-yl]methyleneamino] thiourea]
≥ 75%: mortality at 300 ppm [7] | mortality at 800 ppm [2] | mortality at 500 ppm [3] | mortality at 800 ppm [5]

Fc1cccc(F)c1NC(=S)N/N=C/c1ccc2c(ccc3c2ncn3-c2ccc(OC(F)(F)F)cc2)c1 [C-71, 1-(2,6-difluorophenyl)-3-[(E)-[3-[4-(trifluoromethoxy)phenyl]benzo[e]benzimidazol-7-yl]methyleneamino] thiourea]
≥ 75%: mortality at 300 ppm [7] | mortality at 800 ppm [2] | mortality at 800 ppm [4] | mortality at 800 ppm [5]

Cc1cccc(C)c1NC(=S)N/N=C/c1ccc2c(ccc3c(-c4ccc(OC(F)(F)F)cc4)onc32)c1 [C-84, 1-(2,6-dimethylphenyl)-3-[(E)-[3-[4-(trifluoromethoxy)phenyl]benzo[g][2,1]benzoxazol-7-yl]methyleneamino] thiourea]
≥ 75%: mortality at 800 ppm [1] | mortality at 800 ppm [4] | mortality at 800 ppm [5]

Cc1cccc(C)c1NC(=S)N(C)/N=C/c1ccc2c(ccc3c2ncn3-c2ccc(OC(F)(F)F)cc2)c1 [C-85, 3-(2,6-dimethylphenyl)-1-methyl-1-[(E)-[3-[4-(trifluoromethoxy)phenyl]benzo [e]benzimidazol-7-yl]methyleneamino] thiourea]
≥ 75%: mortality at 300 ppm [7] | mortality at 800 ppm [2] | mortality at 500 ppm [3] | mortality at 800 ppm [8] | mortality at 800 ppm [4] | mortality at 500 ppm [6] | mortality at 800 ppm [5]

Cc1cccc(C)c1NC(=S)N/N=C/c1ccc2c(ccc3c(-c4ccc(OC(F)(F)F)cc4)n(C)nc32)c1 [C-96, 1-(2,6-dimethylphenyl)-3-[(E)-[2-methyl-3-[4-(trifluoromethoxy)phenyl]benzo[g]indazol-7-yl]methyleneamino] thiourea]
≥ 75%: mortality at 800 ppm [2] | mortality at 500 ppm [3] | mortality at 800 ppm [8] | mortality at 800 ppm [4] | mortality at 500 ppm [6] | mortality at 800 ppm [5]

Cc1cccc([S+](C)[O-])c1NC(=S)N/N=C/c1ccc2c(ccc3c2ncn3-c2ccc(OC(F)(F)F)cc2)c1 (centres unmarked) [C-104, 1-(2-methyl-6-methylsulfinyl-phenyl)-3-[(E)-[3-[4-(trifluoromethoxy)phenyl]benzo[e]benzimidazol-7-yl]methyleneamino]thiourea]
≥ 75%: mortality at 300 ppm [7] | mortality at 800 ppm [2] | mortality at 500 ppm [3] | mortality at 800 ppm [8] | mortality at 800 ppm [4] | mortality at 500 ppm [6] | mortality at 800 ppm [5]

Cc1cccc(C)c1NC(=S)N/N=C/c1ccc2c(ccc3c2ncn3-c2ccc(Cl)cc2)c1 [C-106, 1-[(E)-[3-(4-chlorophenyl)benzo[e]benzimidazol-7-yl]methyleneamino]-3-(2,6-dimethylphenyl)thiourea]
≥ 75%: mortality at 300 ppm [7] | mortality at 800 ppm [2] | mortality at 800 ppm [8] | mortality at 800 ppm [4] | mortality at 800 ppm [5]

Cc1cccc(C)c1NC(=S)N/N=C/c1ccc2c(c1)CCc1c-2nn(C)c1-c1ccc(OC(F)(F)F)cc1 [C-107, 1-(2,6-dimethylphenyl)-3-[(E)-[2-methyl-3-[4-(trifluoromethoxy)phenyl]-4,5-dihydrobenzo[g]indazol-7-yl]methyleneamino]thiourea]
≥ 75%: mortality at 300 ppm [7] | mortality at 800 ppm [2] | mortality at 500 ppm [3] | mortality at 800 ppm [8] | mortality at 800 ppm [4] | mortality at 500 ppm [6] | mortality at 800 ppm [5]
